Data reported in patent US6608086B2, “Dihydropyridines and new uses thereof” (Synaptic Pharmaceutical Corporation, priority 1993, dated 2003).
Where a name gives a salt, the structure may show the parent alone. Read-outs that look alike come from different tables or passages of the source.

What was measured:
[1] = target: T1, α1B Human Adrenergic Receptor (Homo sapiens, UniProt P35368); test: Radioligand binding, [3H]prazosin, cloned human α1B adrenergic receptor
T1 construct: The entire coding region of α1B (1563 bp); expressed in transfected cells
T1 sequence (P35368 1-520): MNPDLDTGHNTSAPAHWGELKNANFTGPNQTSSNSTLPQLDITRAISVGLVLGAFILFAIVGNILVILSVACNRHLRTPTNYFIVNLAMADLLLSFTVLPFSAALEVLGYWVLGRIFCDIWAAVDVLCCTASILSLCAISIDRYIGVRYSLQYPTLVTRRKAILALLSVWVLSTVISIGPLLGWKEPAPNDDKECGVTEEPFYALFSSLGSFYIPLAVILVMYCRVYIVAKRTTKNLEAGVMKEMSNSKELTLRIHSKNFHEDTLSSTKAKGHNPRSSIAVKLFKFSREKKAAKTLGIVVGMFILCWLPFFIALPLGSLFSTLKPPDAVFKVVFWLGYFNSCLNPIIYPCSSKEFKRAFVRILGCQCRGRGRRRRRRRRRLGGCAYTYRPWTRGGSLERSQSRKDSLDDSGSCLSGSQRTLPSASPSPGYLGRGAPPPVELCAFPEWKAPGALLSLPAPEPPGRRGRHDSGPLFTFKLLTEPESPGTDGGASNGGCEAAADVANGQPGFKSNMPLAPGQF
In short: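 Membranes from stably transfected LM(tk−) cells, resuspended in 50 mM Tris-HCl, 1 mM MgCl2, 0.1% ascorbic acid, pH 7.5, were incubated with 0.5 nM [3H]prazosin for 20 min at 37° C. Nonspecific binding defined with 10 μM phentolamine; bound ligand separated by GF/B filtration.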

[2] = target: T2, α1C Human Adrenergic Receptor (Homo sapiens, UniProt P35348); test: Radioligand binding, [3H]prazosin, cloned human α1C adrenergic receptor
T2 construct: The entire coding region of α1C (1401 bp); expressed in transfected cells
T2 sequence (P35348 1-466): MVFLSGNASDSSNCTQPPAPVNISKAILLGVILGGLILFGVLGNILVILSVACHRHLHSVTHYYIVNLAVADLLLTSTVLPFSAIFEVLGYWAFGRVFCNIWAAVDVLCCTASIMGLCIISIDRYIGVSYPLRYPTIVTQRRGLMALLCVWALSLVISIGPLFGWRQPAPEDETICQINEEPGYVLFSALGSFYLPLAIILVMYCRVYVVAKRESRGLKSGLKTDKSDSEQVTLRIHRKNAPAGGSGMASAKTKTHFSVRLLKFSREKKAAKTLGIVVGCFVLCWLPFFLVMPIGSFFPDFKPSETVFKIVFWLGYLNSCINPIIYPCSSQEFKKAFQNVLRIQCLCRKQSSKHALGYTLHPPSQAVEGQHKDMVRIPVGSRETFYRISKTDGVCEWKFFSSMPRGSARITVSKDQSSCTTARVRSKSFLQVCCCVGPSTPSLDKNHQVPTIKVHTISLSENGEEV
In short: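 Membranes from LM(tk−) cells stably expressing the cloned human α1C receptor were incubated with 0.5 nM [3H]prazosin at 37° C. for 20 min in 50 mM Tris-HCl, 1 mM MgCl2, 0.1% ascorbic acid, pH 7.5. Nonspecific binding was defined with 10 μM phentolamine, and bound ligand was separated by GF/B filtration.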

[3] = target: T3, α2B receptor (Homo sapiens, UniProt P18089); test: Competition binding, [3H]rauwolscine, human α2B receptor
T3 construct: host or cells: LM(tk-) cells, line L-NGC-α2B
T3 sequence (P18089 1-450): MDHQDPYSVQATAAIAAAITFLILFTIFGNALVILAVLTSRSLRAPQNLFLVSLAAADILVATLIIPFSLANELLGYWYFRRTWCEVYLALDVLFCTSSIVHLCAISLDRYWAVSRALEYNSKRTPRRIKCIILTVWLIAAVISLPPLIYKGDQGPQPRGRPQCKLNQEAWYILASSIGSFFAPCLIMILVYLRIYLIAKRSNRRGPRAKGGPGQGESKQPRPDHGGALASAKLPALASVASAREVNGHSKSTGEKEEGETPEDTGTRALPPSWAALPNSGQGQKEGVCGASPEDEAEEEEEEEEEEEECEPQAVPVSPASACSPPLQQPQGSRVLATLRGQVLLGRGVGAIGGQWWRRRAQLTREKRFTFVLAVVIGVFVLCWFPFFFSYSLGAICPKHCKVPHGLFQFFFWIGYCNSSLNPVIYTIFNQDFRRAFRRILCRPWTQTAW
In short: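 Equilibrium displacement of [3H]rauwolscine (0.5 nM) measured on membranes from stably transfected LM(tk−) lines, one per α2 subtype, in glycylglycine buffer at pH 7.6. Nonspecific binding set by 10 μM phentolamine; separation by filtration.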

[4] = cloned human receptor, LM(tk-) cell membranes, mean, read-out: PKi alpha-1 1b (converted)
[5] = cloned human receptor, LM(tk-) cell membranes, mean, read-out: PKi alpha-1 1c (converted)
[6] = [3H]rauwolscine, human receptor, LM(tk-) cell lysates, mean, read-out: PKi alpha-2 2b (converted)
[7] = cloned human α1B receptor, LM(tk−) cell membranes
[8] = cloned human α1C receptor, LM(tk−) cell membranes
[9] = [3H]rauwolscine, human α2B receptor, LM(tk−) cells

For `CCC1=C(C(=O)OCCO)C(c2ccc([N+](=O)[O-])cc2)C(C(=O)NCCCN2CCC(c3ccccc3)(c3ccccc3)CC2)=C(COC)N1` (stereo not drawn) [Example 246], the Ki ([1]; PKi alpha-1 1b, cloned human α1B receptor, LM(tk-) cell membranes) was 174 nM, the Ki ([2]; PKi alpha-1 1c, cloned human α1C receptor, LM(tk-) cell membranes) was 2.75 nM and the Ki ([3]; PKi alpha-2 2b, [3H]rauwolscine, human α2B receptor, LM(tk-) cells) was 309 nM.
For `CCOC(=O)C1(c2ccccc2)CCN(CCCNC(=O)C2=C(COCCN)NC(CC)=C(C(=O)O)C2c2ccc([N+](=O)[O-])cc2)CC1` (stereo not drawn) [Example 196, 2-[(2-Aminoethoxy)methyl]-3-{N-[3-(4-ethoxycarbonyl-4-phenylpiperidin-1-yl)propyl]}carboxamido-1,4-dihydro-6-ethyl-4-(4-nitrophenyl)pyridine-5-carboxylic Acid], the Ki [1, 4] was 3630 nM, the Ki [2, 5] was 38.9 nM and the Ki [3, 6] was 4680 nM.
For `CCC1=C(C(N)=O)C(c2ccc([N+](=O)[O-])cc2)C(C(=O)NC2CCN(CCc3c[nH]c4ccccc34)CC2)=CN1CC` (stereo not drawn) [Example 122, 5-Carboxamido-1,4-dihydro-3-(N-{1-[2-(3-indolyl)ethyl]piperidin-4-yl}) carboxamido-1,6-diethyl-4-(4-nitrophenyl)pyridine], the “pKi alpha-1 1b” value [1, 7] was 7.57, the “pKi alpha-1 1c” value [2, 8] was 7.71 and the “pKi alpha-2 2b” value [3, 9] was 7.35.
`COC(=O)C1=C(C)NC(CCCCN)=C(C(=O)NCCCN2CCC(c3ccccc3)(c3ccccc3)CC2)C1c1ccc([N+](=O)[O-])cc1` (stereo not drawn) [Example 170, 2-(4-Aminobutyl)-1,4-dihydro-5-methoxycarbonyl-6-methyl-4-(4-nitrophenyl)-3-{N-[3-(4,4-diphenylpiperidin-1-yl)propyl]}carboxamidopyridine] was tested, and the Ki [1, 4] was 105 nM, the Ki [2, 5] was 1.26 nM and the Ki ([3]; PKi alpha-2 2b) was 8710 nM.
Compound `CCOC(=O)C1(c2ccccc2)CCN(CCCNC(=O)C2=C(COCCN)NC(CC)=C(C(N)=O)C2c2ccc([N+](=O)[O-])cc2)CC1` (stereo not drawn) [Example 193, 2-[(2-Aminoethoxy)methyl]-5-carboxamido-3-{N-[3-(4-ethoxycarbonyl-4-phenylpiperidin-1-yl)propyl]}carboxamido-1,4-dihydro-6-ethyl-4-(4-nitrophenyl)pyridine] has a Ki [1, 4] of 1740 nM, a Ki [2, 5] of 1.58 nM and a Ki [3, 6] of 2400 nM.
Work on `COC(=O)C1=C(C)NC(C)=C(C(=O)NCCCN2CCc3cc(OC)c(OC)cc3C2)C1c1ccc([N+](=O)[O-])cc1` (stereo not drawn) [Example 57, 1,4-Dihydro-3-methoxycarbonyl-5-{N-[3-(1,2,3,4-tetrahydro-6,7-dimethoxyisoquinolin-2-yl)propyl]}carboxamido-2,6-dimethyl-4-(4-nitrophenyl)pyridine hydrochloride hydrate] yielded a Ki ([1]; cloned human receptor in LM(tk-) cell membranes, SEM and n in lines below, read-out: pKi alpha-1 1b (converted)) of 1230 nM, a Ki ([2]; cloned human receptor in LM(tk-) cell membranes, SEM and n in lines below, read-out: pKi alpha-1 1c (converted)) of 603 nM and a Ki ([3]; [3H]rauwolscine, LM(tk-) cell line L-NGC-α2B, SEM and n in lines below, read-out: pKi alpha-2 2b (converted)) of 1860 nM.
For `CCC1=C(C(=O)NC)C(c2ccc([N+](=O)[O-])cc2)C(C(=O)NCCCN2CCC(C(=O)OC)(c3ccccc3)CC2)=C(CC)N1` (stereo not drawn) [Example 179, 2,6-Diethyl-1,4-dihydro-3-{N-[3-(4-methoxycarbonyl-4-phenyl-piperidin-1-yl)propyl]}carboxamido-5-(N-methyl)carboxamido-4-(4-nitrophenyl)pyridine], the Ki [1, 4] was 1070 nM, the Ki [2, 5] was 3.31 nM and the Ki ([3]; PKi alpha-2 2b) was 1860 nM.
With `CCC1=C(C(N)=O)C(c2ccc([N+](=O)[O-])cc2)C(C(=O)NCCCN2CCC(C(=O)OC)(c3ccccc3)CC2)=C(CC)N1` (stereo not drawn) [Example 200] the Ki [1, 4] was 2000 nM, the Ki [2, 5] was 4.37 nM and the Ki ([3]; PKi alpha-2 2b) was 1070 nM.
For `CNC(=O)C1=C(C)NC(C)=C(C(=O)NCCCN2CCC(c3ccccc3)(c3ccccc3)CC2)C1c1ccc2c(c1)OCCO2` (stereo not drawn) [Example 163], the Ki ([1]; PKi alpha-1 1b, cloned human receptor, LM(tk-) cell membranes, mean) was 1020 nM, the Ki ([2]; PKi alpha-1 1c, cloned human receptor, LM(tk-) cell membranes, mean) was 18.6 nM and the Ki ([3]; PKi alpha-2 2b, [3H]rauwolscine, human receptor, LM(tk-) cell lysates, mean) was 1700 nM.
In the case of `CCC1=C(C(N)=O)C(c2ccc([N+](=O)[O-])cc2)C(C(=O)NC2CCN(CCc3c[nH]c4ccccc34)CC2)=CN1CC` (stereo not drawn) [Example 123, 5-Carboxamido-1,6-diethyl-1,4-dihydro-3-(N-{1-[2-(3-indolyl)ethyl]piperidin-4-yl}) carboxamide-4-(4-nitrophenyl)pyridine], the “pKi alpha-1 1b” value [1, 7] is reported as 8.01, the “pKi alpha-1 1c” value [2, 8] is reported as 8.3 and the “pKi alpha-2 2b” value [3, 9] is reported as 6.87.
Compound `COC(=O)C1(c2ccccc2)CCN(CCCNC(=O)C2=C(CCCCN)NC(C)=C(C(N)=O)C2c2ccc([N+](=O)[O-])cc2)CC1` (stereo not drawn) [Example 177, 2-(4-Aminobutyl)-5-carboxamido-1,4-dihydro-3-{N-[3-(4-methoxycarbonyl-4-phenylpiperidin-1-yl)propyl]}carboxamido-6-methyl-4-(4-nitrophenyl)pyridine] has a Ki [1, 4] of 759 nM, a Ki [2, 5] of 4.68 nM and a Ki ([3]; PKi alpha-2 2b) of 2880 nM.
Compound `CCOC(=O)C1(c2ccccc2)CCN(CCCNC(=O)C2=C(COCCN)NC(CC)=C(C(=O)OC)C2c2ccc([N+](=O)[O-])cc2)CC1` (stereo not drawn) [Example 197, 2-[(2-Aminoethoxy)methyl]-3-{N-[3-(4-ethoxycarbonyl-4-phenylpiperidin-1-yl)propyl]}carboxamido-1,4-dihydro-6-ethyl-5-methoxycarbonyl-4-(4-nitrophenyl) pyridine] has a Ki [1, 4] of 148 nM, a Ki [2, 5] of 0.55 nM and a Ki ([3]; PKi alpha-2 2b) of 2340 nM.
With `CCNC(=O)C1=C(CC)NC(CC)=C(C(=O)NCCCN2CCC(C(=O)OC)(c3ccccc3)CC2)C1c1ccc([N+](=O)[O-])cc1` (stereo not drawn) [Example 180, 2,6-Diethyl-1,4-dihydro-5-(N-ethyl)carboxamido-3-{N-[3-(4-methoxycarbonyl-4-phenylpiperidin-1-yl)propyl]}carboxamido-4-(4-nitrophenyl)pyridine] the Ki [1, 4] was 851 nM, the Ki [2, 5] was 3.63 nM and the Ki ([3]; PKi alpha-2 2b) was 3630 nM.
For `CCOC(=O)C1(c2ccccc2)CCN(CCCNC(=O)C2=C(COCCN)NC(CC)=C(C(=O)NC)C2c2ccc([N+](=O)[O-])cc2)CC1` (stereo not drawn) [Example 194, 2-[(2-Aminoethoxy)methyl]-3-{N-[3-(4-ethoxycarbonyl-4-phenylpiperidin-1-yl)propyl]}carboxamido-1,4-dihydro-6-ethyl-5-(N-methyl) carboxamido-4-(4-nitrophenyl) pyridine], the Ki [1, 4] was 2690 nM, the Ki [2, 5] was 3.72 nM and the Ki [3, 6] was 5750 nM.
`CCC1=C(C(N)=O)C(c2ccc([N+](=O)[O-])cc2)C(C(=O)NCCCN2CCC(c3ccccc3)CC2)=C(CC)N1` (stereo not drawn) [Example 121, 5-Carboxamido-2,6-diethyl-1,4-dihydro-4-(4-nitrophenyl)-3-{N-[3-(4-phenylpiperidin-1-yl)propyl]}carboxamidopyridine] showed a Ki ([1]; cloned human α1B receptor, LM(tk−) cell membranes, read-out: pKi alpha-1 1b (converted)) of 72.4 nM, a Ki ([2]; cloned human α1C receptor, LM(tk−) cell membranes, read-out: pKi alpha-1 1c (converted)) of 1.32 nM and a Ki ([3]; [3H]rauwolscine, human α2B receptor, LM(tk−) cells, read-out: pKi alpha-2 2b (converted)) of 257 nM.
